The data set has as its target CYP3A4 (Homo sapiens, UniProt P08684). As to the kind of experiment: NFa-based screening and characterizing of hCYP3A4 inhibitors in HLMs. Conditions: human, human liver microsomes, pH 7.4, probe NFa (4-hydroxylation to 4-HNFa).

Each structure is given as a SMILES string.

Chain of CYP3A4 (P08684 whole entry): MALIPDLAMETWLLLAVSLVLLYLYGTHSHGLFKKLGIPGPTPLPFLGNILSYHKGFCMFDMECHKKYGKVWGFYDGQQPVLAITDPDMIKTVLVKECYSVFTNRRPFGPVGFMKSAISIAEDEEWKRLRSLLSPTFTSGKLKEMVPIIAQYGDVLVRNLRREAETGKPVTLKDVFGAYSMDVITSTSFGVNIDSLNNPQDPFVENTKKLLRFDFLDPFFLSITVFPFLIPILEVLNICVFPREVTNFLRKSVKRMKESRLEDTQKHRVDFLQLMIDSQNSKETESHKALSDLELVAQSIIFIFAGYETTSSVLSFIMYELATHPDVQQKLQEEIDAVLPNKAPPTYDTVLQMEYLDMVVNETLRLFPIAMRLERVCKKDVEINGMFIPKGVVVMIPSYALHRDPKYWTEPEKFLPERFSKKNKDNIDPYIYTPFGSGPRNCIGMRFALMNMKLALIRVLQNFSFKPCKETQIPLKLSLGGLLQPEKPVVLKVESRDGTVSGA

Consider `O=C1c2cccc(O)c2C(=O)c2cccc(O)c21` [1,5-Dihydroxyanthraquinone], for which the activity at 30 min, 1 µM worked out at 99.8%.

With `O=C1c2cccc(Cl)c2C(=O)c2c(Cl)cccc21` [1,8-Dichloroanthraquinone], the activity at 30 min, 1 µM is 85.5%.

As for `Nc1cccc2c1C(=O)c1ccccc1C2=O` [1-Aminoanthraquinone], the activity at 30 min, 1 µM amounted to 62.6%.

With `O=C1c2ccccc2C(=O)c2c(O)cccc21` [1-Hydroxy anthraquinone], the activity at 30 min, 1 µM is 90.5%.

In the case of `O=C1c2ccc(Br)cc2C(=O)c2ccc(Br)cc21` [2,6-Dibromoanthraquinone], the activity at 30 min, 1 µM is 85.5%.

Take `O=C1c2ccc(O)cc2C(=O)c2ccc(O)cc21` [2,6-Dihydroxyanthraquinone]: the activity at 30 min, 1 µM was found to be 88.8%.

On to `CCc1ccc2c(c1)C(=O)c1ccccc1C2=O` [2-Ethyl anthraquinone], for which the activity at 30 min, 1 µM stood at 79.8%.

On to `Cc1ccc2c(c1)C(=O)c1ccccc1C2=O` [2-Methyl anthraquinone], for which the activity at 30 min, 1 µM was 83.6%.

Take `COc1ccc(-c2cc(=O)c3c(O)cc(O)cc3o2)cc1` [Acacetin]: the activity at 30 min, 1 µM is 49.9%.

In the case of `COc1cc(O)cc2c1C(=O)C[C@@H](c1ccccc1)O2` [Alpinetin], the activity at 30 min, 1 µM worked out at 95.7%.

On to `O=C(O)c1ccc2c(c1)C(=O)c1ccccc1C2=O` [Anthraquinone-2-carboxylic acid], for which the activity at 30 min, 1 µM came to 98%.

With `COc1cc(C[C@H]2C(=O)OC[C@@H]2Cc2ccc(OC)c(OC)c2)ccc1O` [Arctigenin], the activity at 30 min, 1 µM turned out to be 103%.

`CC(C)=CCc1cc2c(cc1O)O[C@H](c1ccc(O)cc1)CC2=O` [Bavachin]: the activity at 30 min, 1 µM was found to be 71.6%.

Turning to `COc1ccc(-c2coc3cc(O)ccc3c2=O)cc1O` [Calycosin], the activity at 30 min, 1 µM was determined as 99.3%.

`COc1cc2c(cc1OC)C(=O)/C(=C/c1ccco1)C2` [D2, (E)-2-(Furan-2-ylmethylene)-5,6-dimethoxy-2,3-dihydro-1H-inden-1-one]: the activity at 30 min, 1 µM was 102%.

With `COc1cc2c(cc1OC)C(=O)/C(=C/c1ccc(-c3ccccc3)cc1)C2` [D3, (E)-2-([1,1'-Biphenyl]-4-ylmethylene)-5,6-dimethoxy-2,3-dihydro-1H-inden-1-one], the activity at 30 min, 1 µM was found to be 75.9%.

Regarding `COc1cc2c(cc1OC)C(=O)/C(=C/c1ccccc1C)C2` [D4, (E)-5,6-Dimethoxy-2-(2-methylbenzylidene)-2,3-dihydro-1H-inden-1-one], the activity at 30 min, 1 µM stood at 58.1%.

For the compound `COc1cc2c(cc1OC)C(=O)/C(=C/c1cccc(C)c1)C2` [D5, (E)-5,6-dimethoxy-2-(3-methylbenzylidene)-2,3-dihydro-1H-inden-1-one], the activity at 30 min, 1 µM came to 72.3%.

Take `COc1ccc(/C=C2\Cc3cc(OC)c(OC)cc3C2=O)cc1` [D6, (E)-5,6-Dimethoxy-2-(4-methoxybenzylidene)-2,3-dihydro-1H-inden-1-one]: the activity at 30 min, 1 µM is 67.8%.

As for `COc1ccccc1C(=O)/C=C/c1ccc2ccccc2c1` [D7, (E)-1-(2-methoxyphenyl)-3-(naphthalen-2-yl)prop-2-en-1-one], the activity at 30 min, 1 µM was found to be 95.7%.

For the compound `O=C(/C=C/c1ccc2ccccc2c1)c1ccccc1O` [D8, (E)-1-(2-hydroxyphenyl)-3-(naphthalen-2-yl)prop-2-en-1-one], the activity at 30 min, 1 µM came to 88%.

On to `COc1cc(O)c(C(=O)/C=C/c2ccc3ccccc3c2)c(OC)c1OC` [D9, (E)-1-(6-hydroxy-2,3,4-trimethoxyphenyl)-3-(naphthalen-2-yl)prop-2-en-1-one], for which the activity at 30 min, 1 µM came to 85%.

As for `COc1cc(O)c(C(=O)/C=C/c2ccc3ncccc3c2)c(OC)c1OC` [D12, (E)-1-(6-hydroxy-2,3,4-trimethoxyphenyl)-3-(quinolin-6-yl)prop-2-en-1-one], the activity at 30 min, 1 µM amounted to 70%.

For the compound `COc1cccc(C(=O)/C=C/c2ccc3nccnc3c2)c1` [D14, (E)-1-(3-methoxyphenyl)-3-(quinoxalin-6-yl)prop-2-en-1-one], the activity at 30 min, 1 µM stood at 63.9%.

The record behind these values is article PMC12036557, “Functional Imaging of CYP3A4 at Multiple Dimensions Using an AI‐Driven High Performance Fluorogenic Substrate” (Small (Weinheim an Der Bergstrasse, Germany), 2025).
